# Assay results from patent US20140107104A1, “COMBINATION MEDICINE FOR TREATMENT OF DEPRESSION” (priority 2011, published 2014).
# What was measured:
# [1] = tested on: dentate gyrus; test: Microarray analysis of genes expressed in the dentate gyrus; format: in vivo, mice; settings: for expression of depression-related gene group: SKF81297 3 mg/(kg day) i.p. days 10-14; for mRNA expression level Alox8: control C 2.02; for mRNA expression level Drd4: control C 29.28; for mRNA expression level Prir (second line): control C 36.03; for mRNA expression level Drd1a: control C 46.26; for mRNA expression level Prir (first line): control C 48.03; for mRNA expression level S100a4: control C 337.31; for mRNA expression level Anxa2: control C 483.27; for mRNA expression level Rgs4 (second line): control C 687.50; for mRNA expression level Htr4: control C 723.76; for mRNA expression level Furin: control C 742.58; for mRNA expression level Gfap (third line): control C 1308.81; for mRNA expression level Bdnf: control C 1312.91; for mRNA expression level Rgs4 (first line): control C 2347.43; for mRNA expression level Gfap (second line): control C 3008.11
# Experimental: Then, microarray analysis of genes expressed in the dentate gyrus of these mice was performed.
# The microarray analysis was performed as follows. Total RNA was isolated from the hippocampus of each mouse by TRIzol method (Invitrogen, Carlsbad, Calif.) and then purified using an RNeasy column (Qiagen, Valencia, Calif.). Double strand cDNA was synthesized from the total RNA, and in vitro transcription reaction was performed using biotin-labeled RNA prepared from the cDNA. The labeled RNA was hybridized with Mouse Genome 430 2.0 Array (Affymetrix, Santa Clara, Calif.) comprising specific probe sets, and washing was performed according to the manufacturer's recommendations. The hybridized probe array was stained with streptoavidin conjugate phycoerythrin, and each GeneChip was scanned using Affymetrix GeneChip scanner 3000 (GCS3000). GeneChip analysis was performed using Microarray Analysis Suite version 5.0.
# [2] = tested on: dopamine D1 receptor-GFP; test: Immunohistochemical analysis of dentate gyrus of dopamine D1 receptor-GFP mice; format: in vivo; settings: fluoxetine pellet 14 days vs placebo pellet
# Experimental: Each mouse was anesthetized with sodium pentobarbital and perfused with 4% paraformaldehyde (PFA) in 0.1 M phosphate buffered saline (PBS). The brain was removed and subjected to immersion fixation in the same fixing fluid at 4° C. for another 2 hours and […] frontal-plane sections were prepared using a cryostat (Leica). The sections were washed with tris buffered saline (pH 7.4) containing Tween 20. For immunostaining, frozen sections were incubated with the following primary antibody: rabbit anti-calbindin D28K polyclonal antibody (1:3000 dilution; SWANT) at 4° C. for 18 hours. The anti-calbindin D28K polyclonal antibody is a maturation marker for granule cells. For detection of antigen localization, the sections were incubated with Alexa Fluor (594)-conjugate goat anti-rabbit IgG (1:400 dilution; Invitrogen) at 4° C. for 2 hours. Further, for nuclear staining, the sections were stained with DAPI. Fluorescent signals were each analyzed using a confocal laser scanning microscope (LSM5 Pascal, Zeiss).
# [3] = tested on: hippocampal dentate gyrus; test: RT-PCR analysis of mRNA expression in hippocampal dentate gyrus after antidepressant pellet; format: in vivo, mice; settings: subcutaneously implanted pellet, 14 days, compared to placebo pellet
# Experimental: The method of subcutaneously implanting each pellet was as follows: a small incision about 5 mm was made in the neck skin of each mouse, a pellet was inserted through the incision to a depth of about 2 cm with tweezers for indwelling, and the skin was sutured.
# Total RNA was isolated from the hippocampal dentate gyrus of the mice treated with the fluoxetine pellet or the control pellet. First strand cDNA was prepared from 1 ug of DNaseI-treated total RNA using a reverse transcriptase QuantiTect (registered trademark, Qiagen, Valencia, Calif.). Gene expression was quantified using SYBR green (2×SYBR Green PCR Master Mix; Qiagen, Valencia, Calif.) according to the manufacturer's directions. Quantitative RT-PCR was performed using LightCycler (registered trademark) 480II real-time PCR detection system (Roche, Mannheim, Germany) in the following conditions (95° C.: 5 minutes; and then 40 cycles of 95° C.: 10 seconds, 60° C.: 30 seconds, and 65° C.: 1 minute). Beta-actin was amplified in all the samples for standardization of expression data. Whether or not the DNA region of each targeted gene was amplified was confirmed by melting curve analysis after RT-PCR (95° C.: 1 minute, 55° C.: 30 seconds, 95° C.: 30 seconds). The Ct value used was the average of 2 RT-PCR results.
# Experiments were conducted in the same manner as in “1.
# [4] = tested on: dopamine D1 receptor signaling; test: Dopamine D1 receptor signaling in slices of the hippocampal dentate gyrus (phosphorylation of DARPP-32 and ERK); format: cell-based, mice
# Experimental: Harvested mouse brain was kept cool in ice-cooled and oxygenated Krebs-HCO3^− buffer, and using vibratome VT1000S (Leica Microsystems, Nussloch, Germany), 350-micrometer-thick continuous coronal slices were prepared. From the coronal slices, slices of the hippocampal dentate gyrus were cut out and used for experiments. Each slice of the hippocampal dentate gyrus was preincubated in 2 mL of Krebs-HCO3^− buffer for 60 minutes and treated with a dopamine D1 receptor agonist, namely SKF81297, and dopamine D1 receptor signaling was analyzed. As an indicator of dopamine D1 receptor signaling, phosphorylation of DARPP-32 (Thr34, PKA site) and of ERK was analyzed. The phosphorylation was analyzed by western blotting with a phosphorylation state-specific antibody.
# [5] = tested on: dopamine D1 receptor; test: Western blotting of dopamine D1 receptor protein in hippocampal dentate gyrus; format: in vivo, mice; settings: fluoxetine pellet 14 days
# Excerpt: The samples isolated from the hippocampal dentate gyrus of mice treated with a fluoxetine pellet or a control pellet were electrophoresed using acrylamide gel, and separated proteins were electrically transferred to a nitrocellulose membrane. The D1 receptor protein transferred to the membrane was immunologically detected using a D1 receptor antibody. In the immunological detection, Odyssey near-infrared fluorescent imaging system (LI-COR Biosciences, Lincoln, Nebr.) was used.
# [6] = fluoxetine pellet 15 mg/(kg day)x14 days
Compound,"expression of depression-related gene group [1, 6]",mRNA expression level Alox8 ([1]; same regimen),mRNA expression level Drd4 ([1]; same regimen),mRNA expression level Prir (second line) ([1]; same regimen),mRNA expression level Drd1a ([1]; same regimen),mRNA expression level Prir (first line) ([1]; same regimen),mRNA expression level S100a4 ([1]; same regimen),mRNA expression level Anxa2 ([1]; same regimen),mRNA expression level Rgs4 (second line) ([1]; same regimen),mRNA expression level Htr4 ([1]; same regimen),mRNA expression level Furin ([1]; same regimen),mRNA expression level Gfap (third line) ([1]; same regimen),mRNA expression level Bdnf ([1]; same regimen),mRNA expression level Rgs4 (first line) ([1]; same regimen),mRNA expression level Gfap (second line) ([1]; same regimen),mRNA expression of calbindin [3],mRNA expression of desmoplakin [3],mRNA expression of dopamine D1 receptor [3],mRNA expression of interleukin-1 receptor [3],"mRNA expression of tryptophan 2,3-dioxygenase [3]",further results
CNCCC(Oc1ccc(C(F)(F)F)cc1)c1ccccc1 (stereo not shown) [fluoxetine],neither the SKF81297 sole administration nor the fluoxetine sole administration affected the expression of genes,2.11,35.57,84.69,114.21,48.69,353.74,568.07,1215.07,903.85,799.17,1757.42,1495.90,3659.58,3185.26,less mRNA expression,less mRNA expression,increase in the mRNA expression,less mRNA expression,less mRNA expression,"expression of calbindin in granule cells [2]: lowered; expression of dopamine D1 receptor-GFP in granule cells [2]: significantly increased expression; dopamine D1 receptor signaling ([4]; fluoxetine-induced dematured dentate gyrus slices): doubled; phosphorylation of ERK induced by SKF81297 ([4]; slices from mice with fluoxetine pellet 14 days vs placebo pellet): increased; phosphorylation of DARPP-32 (Thr34, PKA site) induced by SKF81297 ([4]; slices from mice with fluoxetine pellet 14 days vs placebo pellet, SKF81297 1 uM or 10 uM): increased; protein expression of dopamine D1 receptor as compared to placebo pellet [5]: 4 times"
CN(C)CCCN1c2ccccc2CCc2ccccc21 [imipramine],–,–,–,–,–,–,–,–,–,–,–,–,–,–,–,less mRNA expression,less mRNA expression,increase in the mRNA expression,less mRNA expression,less mRNA expression,mRNA expression of BDNF [3]: increased
"Br.Oc1cc2c(c(Cl)c1O)CCNC[C@@H]2c1ccccc1 [SKF81297, R-(+)-6-chloro-7,8-dihydroxy-1-phenyl-2,3,4,5-tetrahydro-1H-3-benzazepine hydrobromide]",neither the SKF81297 sole administration nor the fluoxetine sole administration affected the expression of genes,2.12,30.92,160.90,43.87,61.94,389.62,684.27,1053.99,852.76,837.03,1962.44,1516.05,2742.21,4062.15,–,–,–,–,–,"mRNA expression level S100a10 ([1]; fluoxetine pellet 15 mg/(kg day)x14 days, SKF81297 3 mg/(kg day) i.p.x5 days, control C 461.56): 469.21; mRNA expression level Gfap (first line) ([1]; same regimen, control C […]): 140.79"
